Reference: US11078198B2 (BRISTOL-MYERS SQUIBB COMPANY, priority 2017, dated 2021)

Target: T1, human FXR (Homo sapiens, UniProt Q96RI1)
T1 construct: expressed in transfected cells; host or cells: HEK293 cells stably carrying a 5xGal4-response-element firefly luciferase reporter, transiently transfected with pcDNA3.1-Gal4-FXR
T1 sequence (Q96RI1 262-486 limits assumed): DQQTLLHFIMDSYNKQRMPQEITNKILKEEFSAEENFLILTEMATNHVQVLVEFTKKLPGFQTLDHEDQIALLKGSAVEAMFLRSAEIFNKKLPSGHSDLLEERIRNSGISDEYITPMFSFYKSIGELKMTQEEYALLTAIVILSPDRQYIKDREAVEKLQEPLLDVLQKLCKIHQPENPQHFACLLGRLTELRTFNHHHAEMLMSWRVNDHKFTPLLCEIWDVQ
Test: transient human FXR/Gal4-luciferase reporter assay
Type: cell-based
Conditions: Gal4-hFXR transfected HEK293 reporter cells; relative to 8 μM GW-4064
Summary of the method: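 Transient Gal4-hFXR LBD fusion (pcDNA3.1, Lipofectamine, overnight) expressed in a HEK293 reporter line stably bearing five Gal4 elements upstream of firefly luciferase, grown in charcoal/dextran-stripped FBS. Compound dilutions in DMSO incubated with cells overnight at 37° C, 5% CO2, before luciferase readout.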

Row | Structure (SMILES) | EC50 [nM]
1 | O=C(O)c1ccc(N2C3CCC2CC2(CC(c4c(-c5c(Cl)cccc5Cl)noc4C4CC4)C2)C3)nc1 (stereo not drawn) [Example 16, 6-(3′-(5-Cyclopropyl-3-(2,6-dichlorophenyl)isoxazol-4-yl)-8-azaspiro[bicyclo[3.2.1]octane-3,1′-cyclobutan]-8-yl)nicotinic acid] | 646
2 | CNC(=O)c1cc(F)c2nc(N3CCC4(C=C(c5c(-c6c(Cl)cncc6Cl)noc5C5CC5)C4)CC3)sc2c1 [Example 198, 2-(2-(5-Cyclopropyl-3-(3,5-dichloropyridin-4-yl)isoxazol-4-yl)-7-azaspiro[3.5]non-1-en-7-yl)-4-fluoro-N-methylbenzo[d]thiazole-6-carboxamide] | 311
3 | O=C(O)c1ccc(N2CCC3(C=C(c4c(-c5ccccc5OC(F)(F)F)noc4C4CC4)C3)CC2)nn1 [Example 18, 6-(2-(5-Cyclopropyl-3-(2-(trifluoromethoxy)phenyl)isoxazol-4-yl)-7-azaspiro[3.5]non-1-en-7-yl)pyridazine-3-carboxylic acid] | 1500
4 | O=C(O)COc1cnc2ccc(N3CCC4(C=C(c5c(-c6c(Cl)cccc6Cl)noc5C5CC5)C4)CC3)cc2n1 [Example 130, 2-((7-(2-(5-Cyclopropyl-3-(2,6-dichlorophenyl)isoxazol-4-yl)-7-azaspiro[3.5]non-1-en-7-yl)quinoxalin-2-yl)oxy)acetic acid] | 373
5 | O=C(O)c1cc(F)c2nc(N3[C@@H]4CC[C@H]3CC3(C=C(c5c(-c6c(Cl)cccc6Cl)noc5C5CC5)C3)C4)sc2c1 (mixture of isomers) [Example 11, 2-(3′-(5-Cyclopropyl-3-(2,6-dichlorophenyl)isoxazol-4-yl)-8-azaspiro[bicyclo[3.2.1]octane-3,1′-cyclobutan]-2′-en-8-yl)-4-fluorobenzo[d]thiazole-6-carboxylic acid] | 189
6 | CC(C)(C)OC(=O)N1CCC2(CC1)COC(c1c(-c3c(Cl)cccc3Cl)noc1C1CC1)O2 (racemic) [(±)-tert-Butyl 2-(5-cyclopropyl-3-(2,6-dichlorophenyl)isoxazol-4-yl)-1,3-dioxa-8-azaspiro[4.5]decane-8-carboxylate] | 4800
7 | O=C(NS(=O)(=O)C1CC1)c1ccc2cc(N3CCC4(C=C(c5c(-c6c(Cl)cccc6Cl)noc5C5CC5)C4)CC3)ccc2n1 [Example 193, 6-(2-(5-Cyclopropyl-3-(2,6-dichlorophenyl)isoxazol-4-yl)-7-azaspiro[3.5]non-1-en-7-yl)-N-(cyclopropylsulfonyl)quinoline-2-carboxamide] | 178
8 | O=C(O)c1ccc(N2CCC3(C=C(c4c(-c5ncccc5Cl)noc4C4CC4)C3)CC2)nc1 [Example 171, 6-(2-(3-(3-Chloropyridin-2-yl)-5-cyclopropylisoxazol-4-yl)-7-azaspiro[3.5]non-1-en-7-yl)nicotinic acid] | 1870
9 | O=C(O)c1cc(F)c2nc(N3CCC4(C=C(c5c(-c6cnccc6C(F)(F)F)noc5C5CC5)C4)CC3)sc2c1 [Example 139, 2-(2-(5-Cyclopropyl-3-(4-(trifluoromethyl)pyridin-3-yl)isoxazol-4-yl)-7-azaspiro[3.5]non-1-en-7-yl)-4-fluorobenzo[d]thiazole-6-carboxylic acid] | 482
10 | CCOc1cc(C(=O)O)nc2ccc(N3CCC4(C=C(c5c(-c6ccccc6C(F)(F)F)noc5C5CC5)C4)CC3)cc12 [Example 72, 6-(2-(5-Cyclopropyl-3-(2-(trifluoromethyl)phenyl)isoxazol-4-yl)-7-azaspiro[3.5]non-1-en-7-yl)-4-ethoxyquinoline-2-carboxylic acid] | 10
11 | O=C(O)c1cc(F)c2nc(N3CCC4(C=C(c5c(C(F)F)cnn5-c5ccccc5OC(F)(F)F)C4)CC3)sc2c1 [Example 217, 2-(2-(4-(Difluoromethyl)-1-(2-(trifluoromethoxy)phenyl)-1H-pyrazol-5-yl)-7-azaspiro[3.5]non-1-en-7-yl)-4-fluorobenzo[d]thiazole-6-carboxylic acid] | 230

Further molecules by falling EC50, results first:

Row | EC50 [nM] | Structure (SMILES)
12 | 5000 | O=C(O)c1cccc(N2CCC3(CC2)COC(c2c(-c4ccccc4OC(F)(F)F)noc2C2CC2)O3)n1 (stereo not drawn) [Example 44, 6-(2-(5-cyclopropyl-3-(2-(trifluoromethoxy)phenyl)isoxazol-4-yl)-1,3-dioxa-8-azaspiro[4.5]decan-8-yl)picolinic acid]
13 | 1720 | O=C(O)c1cc(C(F)(F)F)c2cc(N3CCC4(C=C(c5c(C6CCCCC6)noc5C5CC5)C4)CC3)ccc2n1 [Example 98, 6-(2-(3-Cyclohexyl-5-cyclopropylisoxazol-4-yl)-7-azaspiro[3.5]non-1-en-7-yl)-4-(trifluoromethyl)quinoline-2-carboxylic acid]
14 | 1400 | O=C(O)c1ccc(N2CCC3(CC2)CC(c2c(-c4ccccc4C(F)(F)F)noc2C2CC2)C3)nc1 [Example 37]
15 | 1360 | O=C(O)c1cc2ccc(N3CCC4(C=C(c5c(-c6ccncc6Cl)noc5C5CC5)C4)CC3)cc2nn1 [Example 80, 7-(2-(3-(3-Chloropyridin-4-yl)-5-cyclopropylisoxazol-4-yl)-7-azaspiro[3.5]non-1-en-7-yl)cinnoline-3-carboxylic acid]
16 | 445 | C[Si](C)(C)CCOCn1cc(C(=O)O)c2ccc(N3CCC4(C=C(c5c(-c6c(Cl)cccc6Cl)noc5C5CC5)C4)CC3)cc21 [Example 131, 6-(2-(5-Cyclopropyl-3-(2,6-dichlorophenyl)isoxazol-4-yl)-7-azaspiro[3.5]non-1-en-7-yl)-1-((2-(trimethylsilyl)ethoxy)methyl)-1H-indole-3-carboxylic acid]
17 | 316 | O=C(O)c1cnc(N2CCC3(C=C(c4c(-c5c(Cl)cccc5Cl)noc4C4CC4)C3)CC2)nc1C(F)(F)F [Example 119, 2-(2-(5-Cyclopropyl-3-(2,6-dichlorophenyl)isoxazol-4-yl)-7-azaspiro[3.5]non-1-en-7-yl)-4-(trifluoromethyl)pyrimidine-5-carboxylic acid]
18 | 159 | O=C(O)c1cc(OCCO)c2cc(N3CCC4(C=C(c5c(-c6ccccc6C(F)(F)F)noc5C5CC5)C4)CC3)ccc2n1 [Example 143, 6-(2-(5-Cyclopropyl-3-(2-(trifluoromethyl)phenyl)isoxazol-4-yl)-7-azaspiro[3.5]non-1-en-7-yl)-4-(2-hydroxyethoxy)quinoline-2-carboxylic acid]
19 | 155 | COc1cc(C(=O)NS(C)(=O)=O)nc2ccc(N3CCC4(C=C(c5c(-c6ccccc6C(F)(F)F)noc5C5CC5)C4)CC3)cc12 [Example 196, 6-(2-(5-Cyclopropyl-3-(2-(trifluoromethyl)phenyl)isoxazol-4-yl)-7-azaspiro[3.5]non-1-en-7-yl)-4-methoxy-N-(methylsulfonyl)quinoline-2-carboxamide]
20 | 116 | CCOc1cc(C(=O)O)nc2ccc(N3CCC4(C=C(c5c(-c6ccccc6OC(F)(F)F)noc5C5CC5)C4)CC3)cc12 [Example 113, 6-(2-(5-Cyclopropyl-3-(2-(trifluoromethoxy)phenyl)isoxazol-4-yl)-7-azaspiro[3.5]non-1-en-7-yl)-4-ethoxyquinoline-2-carboxylic acid]
21 | 92 | O=C(O)c1cc(C(F)(F)F)c2cc(N3CCC4(C=C(c5c(-c6ccccc6C(F)(F)F)noc5C5CC5)C4)CC3)ccc2n1 [Example 99, 6-(2-(5-Cyclopropyl-3-(2-(trifluoromethyl)phenyl)isoxazol-4-yl)-7-azaspiro[3.5]non-1-en-7-yl)-4-(trifluoromethyl)quinoline-2-carboxylic acid]
22 | 68 | O=C(O)c1cc(C(F)(F)F)c2cc(N3CCC4(C=C(c5c(-c6c(Cl)cc(F)cc6Cl)noc5C5CC5)C4)CC3)ccc2n1 [Example 86, 6-(2-(5-Cyclopropyl-3-(2,6-dichloro-4-fluorophenyl)isoxazol-4-yl)-7-azaspiro[3.5]non-1-en-7-yl)-4-(trifluoromethyl)quinoline-2-carboxylic acid]
23 | 68 | O=C(O)c1cc(OC(F)F)c2cc(N3CCC4(C=C(c5c(-c6cccnc6C(F)(F)F)noc5C5CC5)C4)CC3)ccc2n1 [Example 77, 6-(2-(5-Cyclopropyl-3-(2-(trifluoromethyl)pyridin-3-yl)isoxazol-4-yl)-7-azaspiro[3.5]non-1-en-7-yl)-4-(difluoromethoxy)quinoline-2-carboxylic acid]
24 | 24 | O=C(O)c1ccc2nc(N3CCC4(C=C(c5c(-c6c(Cl)cncc6Cl)noc5C5CC5)C4)CC3)sc2n1 [Example 62, 2-(2-(5-Cyclopropyl-3-(3,5-dichloropyridin-4-yl)isoxazol-4-yl)-7-azaspiro[3.5]non-1-en-7-yl)thiazolo[5,4-b]pyridine-5-carboxylic acid]
25 | 17 | O=C(O)c1ccc2nc(N3CCC4(C=C(c5c(-c6c(Cl)cccc6Cl)noc5C5CC5)C4)CC3)sc2c1 [Example 24, 2-(2-(5-Cyclopropyl-3-(2,6-dichlorophenyl)isoxazol-4-yl)-7-azaspiro[3.5]non-1-en-7-yl)benzo[d]thiazole-6-carboxylic acid]
26 | 11 | O=C(O)c1cc(OC(F)(F)F)c2nc(N3CCC4(C=C(c5c(-c6c(Cl)cncc6Cl)noc5C5CC5)C4)CC3)sc2c1 [Example 50, 2-(2-(5-Cyclopropyl-3-(3,5-dichloropyridin-4-yl)isoxazol-4-yl)-7-azaspiro[3.5]non-1-en-7-yl)-4-(trifluoromethoxy)benzo[d]thiazole-6-carboxylic acid]
27 | 4.1 | COc1cc(C(=O)O)cc2sc(N3CCC4(C=C(c5c(-c6c(Cl)cncc6Cl)noc5C5CC5)C4)CC3)nc12 [Example 59, 2-(2-(5-Cyclopropyl-3-(3,5-dichloropyridin-4-yl)isoxazol-4-yl)-7-azaspiro[3.5]non-1-en-7-yl)-4-methoxybenzo[d]thiazole-6-carboxylic acid]
